The text below walks through data of patent publication US11382848B2, “Compounds reducing malodour perception and the use thereof” (CHEMCOM S.A., priority 2017, dated 2022).

For experiment [1], the target named is T1, human olfactory receptor OR7D4 (Homo sapiens, UniProt Q8NG98).
T1 construct: transfected with a plasmid containing CRE-luciferase and a plasmid containing OR7D4; expressed in transfected cells; host or cells: HEK293T stably expressing olfactory chaperone proteins of the RTP family
T1 sequence (Q8NG98 1-312): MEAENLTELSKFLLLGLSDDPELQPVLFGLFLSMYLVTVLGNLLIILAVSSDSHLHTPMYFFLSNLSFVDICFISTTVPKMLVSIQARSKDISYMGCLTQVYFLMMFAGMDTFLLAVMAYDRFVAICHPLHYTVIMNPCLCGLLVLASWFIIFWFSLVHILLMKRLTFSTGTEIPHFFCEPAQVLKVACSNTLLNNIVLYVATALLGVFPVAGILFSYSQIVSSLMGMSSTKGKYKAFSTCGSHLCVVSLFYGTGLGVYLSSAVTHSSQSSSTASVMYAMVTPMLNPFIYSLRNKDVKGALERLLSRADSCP
Kind of experiment: OR7D4 luciferase gene reporter assay (antagonism of agonist-induced activation). It is filed as cell-based. The procedure:
Cells were maintained in minimal essential medium (EMEM, Lonza) containing 10% fetal bovine serum (M10). HEK293T stably expressing olfactory chaperone proteins from the RTP family as described in WO 2006/002161 (introduced here as a reference) were generated by transfecting HEK293T cells with expression vector containing the chaperone gene sequences and a resistance gene to puromycin, using Lipofectamine 2000. A recombinant cell population was selected by adding 10 μg/ml of puromycin into the culture medium. Monoclonal populations were further obtained by limit dilution procedure. Briefly, a cell suspension was diluted to contain 1 cell per ml and this dilution was dispatched in poly-D-lysine-coated 96 well plates (200 μl of dilution per well). After 5 days of culture, the presence and number of cell colonies per well was checked under a phase contrast microscope. After 5 additional days of culture, wells containing a single colony were harvested and each collected population was amplified independently.
The 5-alpha-androst-16-ene-3-one, used as an agonist of the human olfactory receptor OR7D4 and the tested molecules were diluted at a concentration of 1 mole/litre (M) into dimethyl sulfoxide (DMSO) to generate stock solutions.
For concentration-response analysis, serial dilutions of the tested molecules were prepared from stock solutions in EMEM plated into 96-well plates.
(§1) Briefly, cells were plated on poly-D-lysine-coated 96-well plates (BD Bioscience, Erembodegem-Dorp, Belgium) and transfected with a plasmid containing CRE-luciferase and a plasmid containing OR7D4. Sixteen hours after transfection, the culture medium was replaced by serum-free EMEM containing the tested ligands at a determined concentration. After four hours of incubation at 37° C. degree, cells were lysed and processed for luminescence measurement according to the manufacturer's protocols. Luminescence emission was recorded on a Spectra Max M5 reader (Molecular Devices, Sunnyvale, Calif.). Results were expressed as percentage of the response induced by 10 μM of the adenylate cyclase activator Forskolin.
The ability of the compounds of the invention to inhibit the activity of androstenone on OR7D4 receptor was assessed by the luciferase assay described above.
To determine whether a molecule antagonizes OR7D4, this compound was introduced in the incubation medium of the Luciferase assay described above at a concentration of either 316 μM, 100 μM or 31.6 μM, along with the known activator of the receptor 5α-androst-16-en-3-one at a concentration of 31.6 μM. Molecules were considered as “hits” i.e., as having an antagonist effect on the receptor, if they induced a decrease of at least 50% of the luciferase production elicited upon activation of OR7D4 by 5α-androst-16-en-3-one.
Putative antagonist molecule libraries containing compound 1 and other types of molecules were used to identify antagonist of the receptor OR7D4. The screening campaign was performed on the OR7D4 with a series of 112 putative antagonist molecules. In this screening campaign, compound 1 was identified as a hit.
The compound 1 was further confirmed as antagonist of OR7D4 by performing dose-response analysis using the luciferase assay. Different concentrations of compound 1, ranging from 31.6 nM to 1 mM were tested on HEK293 cell expressing OR7D4 and stimulated with 31.6 μM of 5α-androst-16-en-3-one.
The antagonistic property of compound 1 on OR7D4 was further confirmed by measuring the response of the OR7D4 to 5α-androsta-4,16-dien-3-one in presence of compound 1, using the luciferase assay as describe hereinabove. The observed inhibition was in the same range as the one observed when stimulating the receptor with 5α-androst-16-en-3-one.
To further explore the antagonism on OR7D4, a series of compounds structurally related to compound 1 were synthesized and assessed as antagonists of OR7D4 by dose-response analysis using the luciferase assay. […]
On the technique in general: A reporter such as luciferase makes a cellular process visible.

In experiment [2] the test system is perception of androstenone. Kind of experiment: Alternative sensory test with Tedlar bags and expert panel. How it is done: The test consists, in a first step, in microinjecting androstenone (at 0.6% in ethanol), compound 1 (pure) or androstenone+compound 1 in 10 L Tedlar™ bags specially conceived for gas sampling, previously loaded with a known volume of pure air (from oil free compressor with additional charcoal filters). Than the compound of interest (EtOH solution) is injected with a high accuracy micro-syringe through a septum placed on the tap-valve.
The odour presentation device consists of a cylinder to be filled with clean air. The bag is inserted in the cylinder and connected to a sampling installation in the cylinder by means of a valve. By controlled injection of clean air into the cylinder, the interior pressure is raised and the sampling air is pressed in a controlled manner out of the sample container through the opened valve. This sampling air is transferred to the nose of the corresponding sensory odour panel member by means of a funnel. By this means, each sensory odour panel member receives an identical sample with a standardized volume flow and a constant provision time. The outlet flow rate is between 10-20 L/min (in order to avoid any mixing with ambient air before reaching the nose).
The expert panel is entering the room 15 minutes before starting the test. The basic standard test is a rating in intensity and the use of the closest chemical descriptors according to the following order of presentation:
Each assessor can smell for few seconds. A pause of min. 1 minute is considered between presentations.
The individual rating is done with a resolution of 0.5 on a scale ranging from 0 (no odour) to 5 (saturating odour).

The test system of experiment [3] is forskolin-induced, receptor-independent production of cAMP / Luciferase. Kind of experiment: Forskolin control in cells not expressing the receptor (luciferase assay). It is filed as cell-based. The note with it: cells that did not express the receptor, stimulated by forskolin. How it is done: as §1

The term IC50 denotes the concentration that inhibits the measured activity by half.

Take `CCCCCCC(=C\c1ccccc1)/C=C(\C)C(=O)OCC` [Compound 1, ethyl (E)-4-((E)-benzylidene)-2-methyldec-2-enoate]: in experiment [1] (31.6 nM to 1 mM compound, HEK293 cell expressing OR7D4 stimulated with 31.6 μM 5α-androst-16-en-3-one), the “Luciferase activity elicited by 5α-androst-16-en-3-one, dose-response (FIG. 1)” value is on record as “decrease of Luciferase activity”. In experiment [1] (compound at 316 μM, 100 μM or 31.6 μM with 5α-androst-16-en-3-one at 31.6 μM, 112 putative antagonist molecules screened), the “hit in antagonist screening (decrease of at least 50% of the luciferase production)” value is recorded as “hit”. For the same compound, the IC50 in experiment [1] (dose-response, luciferase assay, half decrease of the luciferase production obtained without antagonist, androstenone at 31.6 micromolar) was found to be 2000 nM; in experiment [1] (response of OR7D4 to 5α-androsta-4,16-dien-3-one in presence of compound) it was 2500 nM. Also, the “typical odour of sweat of Androstenone when smelled in the presence of the compound” value in experiment [2] (Androstenone + compound 1) was “completely disappears”. The intrinsic smell entry in experiment [2] (compound 1 alone) was “mushroom”. Further, the odour intensity entry in experiment [2] (compound 1 alone compared with androstenone alone) was “lower than the one of androstenone alone”. For the same compound, the “forskolin-induced production of Luciferase” value in experiment [3] is recorded as “not affected”.
